Results reported in patent publication US20210244028A1, “TREATMENT FOR REMOVING ECTOPARASITES FROM FISH” (priority 2018, published 2021).
Values joined by “and” are separate entries in the source; they are usually repeats but may differ in a detail not shown here. Identical values can stand only once. Like-named read-outs stand apart in the source and are kept apart here.

Experiments:
Lepeophtheirus salmonis [1] = assay: Immersion treatment of sea lice-challenged salmon in tanks, 1 or 6 weeks post challenge (Example 1); format: in vivo
Description: Eight flow-through treatment tanks each containing 15 fish were set up. The fish were Salmon (Salmo salar) having an average weight of approximately 270 g and of mixed sex. Egg strings removed from ovigerous female Lepeophtheirus salmonis were collected and cultured until infective copepodids were produced. Eight bottles containing approximately 330-350 copepodids were each randomly allocated to a treatment tank (to provide an average of 22 lice per fish).
In preparation for the challenge, water flows in the tanks were stopped and light levels reduced. The lice were then added to each tank and the tanks maintained in total darkness for 6 hours after which light levels were raised and the water flow resumed.
The fish were challenged with sea lice for either one week or for six weeks.
One week after the sea lice challenge, fish in three of the tanks were treated with either 10 ppm w/v, 30 ppm w/v or 50 ppm w/v imidacloprid. One of the tanks was treated with 0.03% DMSO and another tank sham treated with sea water as controls.
For each treatment tank, the appropriate amount of imidacloprid (see Table 1) was dissolved in 100 ml of DMSO and mixed with approximately 900 ml of sea water from the experimental tank to obtain a treatment solution. The water flow on the experimental tanks was disabled and the treatment solution was then added.
Fish were exposed for 60 minutes in static water with full aeration and observed during the exposure period. At the end of the exposure period the water was rapidly drained to approximately ⅓ volume, before the flows were resumed in the tanks.
Six weeks after the fish were challenged with sea lice, the fish in the three remaining treatment tanks were treated with either 10 ppm w/v, 30 ppm w/v or 50 ppm w/v imidacloprid. The treatment was carried out in the same way as for the treatment tanks one week post challenge (see 1.2.1).
Eight weeks after the fish were challenged with sea lice, the study was terminated. Fish were over anaesthetised in MS222 (tricaine methanesulfonate) and pithed using an Iki Jime tool.
The length and weight of each fish and external symptoms were recorded. All lice were removed from each fish and note made of sex and stage of development. The lice were stored in ethanol and sex and stage confirmed using stereo microscope.
The data is expressed as prevalence and abundance. Prevalence is defined as the number of hosts infected with one of more individuals of a parasite species divided by the number of hosts examined (including infected and uninfected hosts) and expressed as a percentage.

[2] = test system: azamethiphos- and deltamethrin-resistant sea lice; assay: In vitro bath exposure of isolated sea lice (Example 6); conditions: 60 minutes exposure; for % effect: registered approx. 20 h after end of exposure
Description: A trial was performed to ensure there was no cross-resistance between azamethiphos- and deltamethrin-resistant sea lice and neonicotinoids. Both pre-adult and adult stages (mobile stages) of both sexes were used, and they were equally distributed among groups. The sea lice were exposed to imidacloprid for 60 minutes, azamethiphos for 60 minutes and deltamethrin for 30 minutes in one litre baths at a range of concentrations (Tables 6, 7 and 8). The sea lice were transferred to clean aerated seawater after treatment. The temperature of the seawater during the experiment was 12° C., but during exposure the temperature raised to approx. 14° C. in regimes exposed for 60 min. (imidacloprid and azamethiphos) and to 13° C. for the regime exposed in 30 minutes (deltamethrin).
The numbers of live and immobilised (including killed) lice in each regime were registered approximately 20 h after end of exposure. Each louse was individually investigated.

Lepeophtheirus salmonis [3] = conditions: 20 ppm (nitenpyram 19 ppm); for percentage responsiveness for sea lice recovered from fish at the end of the treatment period: 24 h post-treatment; for percentage responsiveness of lice recovered from tank at treatment end at 24 hours post-treatment: lice knocked off fish
Description: Lice were monitored continuously for the duration of the exposure and behavioural observations noted, including detachment of lice from fish. At the end of exposure lice were either removed from the tank or fish, placed into small vented plastic screw-top containers (125 mL, LDPE, 25 mm hole drilled into lid and secured with 200 μm mesh), and transferred to a clean tank supplied with filtered sea water and held there for 24 h. Lice which had detached from fish were kept separate from those that had not detached.
24 h post-treatment lice were removed from the screw-top containers to check if they were alive and, if so, if they were responsive. Categories were defined as follows: alive—movement detected; responsive—alive and actively avoids stimulation in a coordinated manner; dead—no movement detected.
Lice defined as responsive could potentially re-attach to a fish. After assessment lice were transferred to 70% alcohol in case determination of instar and sex was required.

fish = assay: Safety of imidacloprid treatment on fish (Example 8); format: in vivo; conditions: 65 ppm
Description: The safety of the imidacloprid treatment on fish was assessed. Fish held in a flow through tank containing 271.8 L of sea water were exposed to 65 ppm w/v of the active ingredient imidacloprid. 17.67 g of imidacloprid was dissolved in 100 ml of dimethyl sulfoxide (DMSO) and the solution was added to approximately 900 ml sea water and mixed. The flow on the through tank was disabled and the solution of imidacloprid was added.
The fish were exposed to 65 ppm imidacloprid in static water for 1 hour and observed for behavioural changes at 5-10 minute intervals. The fish were then held for a further 7 days before being terminated.

Atlantic salmon = assay: Fish mortality and behaviour during bath treatment (Example 7); format: in vivo; conditions: 20 ppm to 200 ppm, 3 to 60 minutes
Description: To determine the concentration- and time-dependence of imidacloprid treatment in vivo, Atlantic salmon (average of 320.9 g) were challenged with imidacloprid in seawater ([…] salinity) at 12° C. The water level in the tank was lowered and aeration was employed during administration of the active. The salmon louse copepodid culture was counted and adjusted to obtain a target level of around 40 copepodids per fish in the challenge tank at each challenge time point.
Fish behaviour/appearance was assessed in vivo during each test. Any changes in behaviour and/or appearance including mortality were recorded.

O=[N+]([O-])NC1=NCCN1Cc1ccc(Cl)nc1 [imidacloprid]
Overall lice abundances compared with the DMSO control (Lepeophtheirus salmonis [1]; 10, 30 or 50 ppm w/v, treated one week post challenge): No significant differences
Time after addition at which no fish were visibly infected with lice (Lepeophtheirus salmonis [1]; 30 ppm w/v, treated 6 weeks post challenge): 59 min
Lesions associated with feeding and attachment of lice (Lepeophtheirus salmonis [1]; 30 ppm w/v, two days post-treatment): almost completely resolved
Time after addition at which no lice were visible on the fish (Lepeophtheirus salmonis [1]; 50 ppm w/v, treated 6 weeks post challenge): 81 min
Lesions associated with feeding and attachment of lice (Lepeophtheirus salmonis [1]; 50 ppm w/v, two days post treatment): almost completely resolved
% effect ([2]; 5 ppm): 30%
% effect ([2]; 10 ppm): 40% and 50%
% effect ([2]; 15 ppm): 100%
% effect ([2]; 20 ppm): 100%
% effect ([2]; 30 ppm): 100%
estimated EC50 value ([2]; immobilisation approx. 20 h after exposure): 7.6 ppm
percentage responsiveness for sea lice recovered from fish at the end of the treatment period (Lepeophtheirus salmonis [3]; exposure 5 min): 100%
percentage responsiveness for sea lice recovered from fish at the end of the treatment period (Lepeophtheirus salmonis [3]; exposure 10 min): 100%
percentage responsiveness of lice recovered from tank at treatment end at 24 hours post-treatment (Lepeophtheirus salmonis [3]; exposure 10 min): 100%
percentage responsiveness for sea lice recovered from fish at the end of the treatment period (Lepeophtheirus salmonis [3]; exposure 15 min): 45%
percentage responsiveness of lice recovered from tank at treatment end at 24 hours post-treatment (Lepeophtheirus salmonis [3]; exposure 15 min): 33%
percentage responsiveness for sea lice recovered from fish at the end of the treatment period (Lepeophtheirus salmonis [3]; exposure 30 min): 50%
percentage responsiveness of lice recovered from tank at treatment end at 24 hours post-treatment (Lepeophtheirus salmonis [3]; exposure 30 min): 10%
percentage responsiveness for sea lice recovered from fish at the end of the treatment period (Lepeophtheirus salmonis [3]; exposure 60 min): no lice responsive
percentage responsiveness for sea lice recovered from fish at the end of the treatment period (Lepeophtheirus salmonis [3]; exposure 60 min, listed as Imidacloprid): 0%
percentage responsiveness of lice recovered from tank at treatment end at 24 hours post-treatment (Lepeophtheirus salmonis [3]; exposure 60 min): 0%
Adverse reactions during a further 7 days (fish; 1 hour exposure, 7 days monitoring): no adverse reactions
External pathologies on termination (fish; 1 hour exposure, terminated after 7 days): no external pathologies
Fish behaviour during the exposure period (fish; static water, 1 hour): No observable changes in fish behaviour
Fish mortality in the trial (Atlantic salmon): No fish died
